Source: ChEMBL document CHEMBL4014354, “2'-Chloro,2'-fluoro Ribonucleotide Prodrugs with Potent Pan-genotypic Activity against Hepatitis C Virus Replication in Culture” (J Med Chem, 2017)

Experiments:
[1] = Inhibition of RNA polymerase 2 isolated from human HeLa cell nuclear extract assessed as decrease in incorporation of P32-alpha-CTP after 2 hrs by scintillation counting method; type: cell-free
[2] = target: DNA-directed RNA polymerase, mitochondrial (Homo sapiens) (UniProt O00411); test: Inhibition of human POLRMT using 5'-P32-RNA/DNA hybrid assessed as incorporation of UTP at 100 uM after 2 hrs by scintillation counting method relative to control; design: scale not given: the % may be the effect or the level left
Sequence of DNA-directed RNA polymerase, mitochondrial (Homo sapiens) (O00411 whole entry): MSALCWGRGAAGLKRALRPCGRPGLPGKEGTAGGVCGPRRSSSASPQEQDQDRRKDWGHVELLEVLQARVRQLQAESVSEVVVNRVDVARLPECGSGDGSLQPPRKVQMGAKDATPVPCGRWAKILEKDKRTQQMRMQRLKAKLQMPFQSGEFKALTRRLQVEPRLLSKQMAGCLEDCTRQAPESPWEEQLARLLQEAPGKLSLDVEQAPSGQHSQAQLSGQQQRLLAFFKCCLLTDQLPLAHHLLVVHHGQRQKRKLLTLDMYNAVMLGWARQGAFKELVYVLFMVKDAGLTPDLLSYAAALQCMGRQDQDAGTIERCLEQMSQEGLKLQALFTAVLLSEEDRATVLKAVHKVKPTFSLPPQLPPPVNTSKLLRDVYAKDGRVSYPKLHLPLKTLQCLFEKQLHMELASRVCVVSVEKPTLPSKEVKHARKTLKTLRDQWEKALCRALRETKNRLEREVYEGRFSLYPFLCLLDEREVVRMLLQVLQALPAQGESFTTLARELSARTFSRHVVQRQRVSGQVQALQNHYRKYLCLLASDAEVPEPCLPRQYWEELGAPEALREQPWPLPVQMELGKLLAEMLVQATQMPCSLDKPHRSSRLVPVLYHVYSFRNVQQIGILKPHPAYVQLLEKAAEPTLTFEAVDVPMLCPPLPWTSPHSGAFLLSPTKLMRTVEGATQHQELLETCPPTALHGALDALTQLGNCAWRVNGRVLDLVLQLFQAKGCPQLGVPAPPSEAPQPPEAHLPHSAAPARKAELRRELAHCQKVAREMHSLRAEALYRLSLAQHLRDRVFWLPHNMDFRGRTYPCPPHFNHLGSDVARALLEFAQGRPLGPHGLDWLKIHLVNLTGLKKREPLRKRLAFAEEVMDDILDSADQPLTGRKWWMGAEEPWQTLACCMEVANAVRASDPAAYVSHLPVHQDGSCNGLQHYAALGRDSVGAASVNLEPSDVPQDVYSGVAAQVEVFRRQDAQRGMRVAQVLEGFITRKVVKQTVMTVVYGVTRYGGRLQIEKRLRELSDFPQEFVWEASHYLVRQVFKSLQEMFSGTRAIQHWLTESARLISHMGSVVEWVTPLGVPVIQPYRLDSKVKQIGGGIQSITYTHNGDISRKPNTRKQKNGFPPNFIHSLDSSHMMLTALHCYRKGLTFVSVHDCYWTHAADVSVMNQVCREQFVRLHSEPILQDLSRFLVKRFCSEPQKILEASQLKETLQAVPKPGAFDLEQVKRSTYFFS

[3] = target: T1, DNA polymerase alpha catalytic subunit (Homo sapiens, UniProt P09884); test: Inhibition of human DNA polymerase alpha using 5' end radiolabeled 24nt DNA/48nt DNA as primer/template after 5 mins by PAGE analysis
T1 sequence (P09884 whole entry): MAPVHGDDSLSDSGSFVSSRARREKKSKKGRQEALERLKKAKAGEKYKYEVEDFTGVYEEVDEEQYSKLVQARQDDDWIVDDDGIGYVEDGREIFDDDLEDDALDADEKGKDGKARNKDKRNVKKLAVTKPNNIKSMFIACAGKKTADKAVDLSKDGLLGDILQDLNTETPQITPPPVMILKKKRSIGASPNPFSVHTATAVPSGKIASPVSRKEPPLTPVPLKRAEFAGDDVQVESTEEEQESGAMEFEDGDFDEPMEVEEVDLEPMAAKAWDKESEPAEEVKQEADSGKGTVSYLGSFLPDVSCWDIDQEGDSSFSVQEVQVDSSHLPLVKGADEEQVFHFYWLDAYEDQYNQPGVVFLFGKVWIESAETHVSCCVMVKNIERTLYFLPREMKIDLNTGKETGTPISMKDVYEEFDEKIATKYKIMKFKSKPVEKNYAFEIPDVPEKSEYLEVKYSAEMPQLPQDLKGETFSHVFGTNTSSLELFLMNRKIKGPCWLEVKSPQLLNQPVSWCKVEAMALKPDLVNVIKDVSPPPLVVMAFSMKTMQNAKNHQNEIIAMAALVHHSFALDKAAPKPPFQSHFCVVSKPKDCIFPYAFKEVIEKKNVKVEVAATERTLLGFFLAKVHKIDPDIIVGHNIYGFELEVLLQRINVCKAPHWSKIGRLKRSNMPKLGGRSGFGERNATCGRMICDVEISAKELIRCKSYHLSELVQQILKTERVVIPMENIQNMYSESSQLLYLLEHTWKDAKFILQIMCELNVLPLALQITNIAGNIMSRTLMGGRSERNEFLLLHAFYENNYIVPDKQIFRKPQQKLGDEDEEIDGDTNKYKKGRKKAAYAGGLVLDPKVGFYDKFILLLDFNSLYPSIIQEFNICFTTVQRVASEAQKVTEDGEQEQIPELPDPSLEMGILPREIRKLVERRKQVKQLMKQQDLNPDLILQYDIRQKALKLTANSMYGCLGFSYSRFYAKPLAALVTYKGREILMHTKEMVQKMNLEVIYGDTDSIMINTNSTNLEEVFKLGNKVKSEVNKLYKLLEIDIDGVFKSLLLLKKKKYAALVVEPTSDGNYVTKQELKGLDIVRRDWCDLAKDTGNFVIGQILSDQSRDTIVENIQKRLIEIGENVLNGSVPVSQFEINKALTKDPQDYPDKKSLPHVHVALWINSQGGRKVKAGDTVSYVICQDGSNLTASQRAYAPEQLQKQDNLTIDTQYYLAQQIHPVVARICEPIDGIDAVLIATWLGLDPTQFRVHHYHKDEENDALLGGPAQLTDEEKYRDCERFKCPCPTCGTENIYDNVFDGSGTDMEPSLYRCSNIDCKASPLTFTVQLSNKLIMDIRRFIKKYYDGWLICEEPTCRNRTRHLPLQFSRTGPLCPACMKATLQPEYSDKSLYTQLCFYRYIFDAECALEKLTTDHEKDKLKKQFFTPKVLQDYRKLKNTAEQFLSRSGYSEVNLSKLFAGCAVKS

DNA polymerase beta = DNA polymerase beta (Homo sapiens, UniProt P06746); test: Inhibition of human DNA polymerase beta using 5' end radiolabeled 24nt DNA/48nt DNA as primer/template after 5 mins by PAGE analysis
[4] = Inhibition of human DNA polymerase gamma using 5' end radiolabeled 24nt DNA/36nt DNA as primer/template after 120 mins by PAGE analysis
Hepatitis C virus [5] = test: Antiviral activity against HCV genotype 1b harboring wild type NS5B infected in human HuH7 cells assessed as inhibition of viral RNA replication after 5 days by RT-PCR method; type: functional, cell-based, Hepacivirus hominis; settings: Huh-7, 120 h
[6] = Cytotoxicity against human HuH7 cells assessed as inhibition of cell proliferation after 4 days by MTS assay; type: cell-based, Huh-7
[7] = Cytotoxicity against human PBMC assessed as inhibition of cell proliferation after 5 days by MTT assay; type: cell-based
[8] = Cytotoxicity against human CEM cells assessed as inhibition of cell proliferation after 4 days by MTT assay; type: cell-based, CCRF-CEM
[9] = Cytotoxicity against African green monkey Vero cells assessed as inhibition of cell proliferation after 3 days by MTT assay; type: cell-based; settings: chlorocebus sabaeus
Hepatitis C virus [10] = test: Antiviral activity against HCV genotype 1a infected in human HuH7 cells assessed as inhibition of viral RNA replication after 96 hrs by RT-PCR method; type: functional, cell-based, Hepacivirus hominis; settings: subtype 1a, Huh-7, 96 h
Hepatitis C virus [11] = test: Antiviral activity against HCV genotype 1b infected in human HuH7 cells assessed as inhibition of viral RNA replication after 96 hrs by RT-PCR method; type: functional, cell-based, Hepacivirus hominis; settings: Huh-7, 96 h
Hepatitis C virus [12] = test: Antiviral activity against HCV genotype 2a/k infected in human HuH7 cells assessed as inhibition of viral RNA replication after 96 hrs by RT-PCR method; type: functional, cell-based, Hepacivirus hominis; settings: Huh-7, 96 h
Hepatitis C virus [13] = test: Antiviral activity against HCV genotype 2b infected in human HuH7 cells assessed as inhibition of viral RNA replication after 96 hrs by RT-PCR method; type: functional, cell-based, Hepacivirus hominis; settings: Huh-7, 96 h
Hepatitis C virus [14] = test: Antiviral activity against HCV genotype 3a infected in human HuH7 cells assessed as inhibition of viral RNA replication after 96 hrs by RT-PCR method; type: functional, cell-based, Hepacivirus hominis; settings: Huh-7, 96 h
Hepatitis C virus [15] = test: Antiviral activity against HCV genotype 4 infected in human HuH7 cells assessed as inhibition of viral RNA replication after 96 hrs by RT-PCR method; type: functional, cell-based, Hepacivirus hominis; settings: genotype 4, Huh-7, 96 h
Hepatitis C virus [16] = test: Antiviral activity against HCV genotype 1b harboring NS5B S282T mutant infected in human HuH7 cells assessed as inhibition of viral RNA replication after 4 days by luciferase reporter gene assay; type: functional, cell-based, Hepacivirus hominis; settings: Huh-7, 96 h
Hepatitis C virus [17] = test: Selectivity ratio of EC50 for HCV genotype 1b harboring NS5B S282T mutant to EC50 for HCV genotype 1b harboring wild type NS5B; type: functional, Hepacivirus hominis
Hepatitis C virus [18] = test: Selectivity ratio of EC90 for HCV genotype 1b harboring NS5B S282T mutant to EC90 for HCV genotype 1b harboring wild type NS5B; type: functional, Hepacivirus hominis
[19] = test system: cytochrome c oxidase subunit 2 DNA (mitochondrial DNA) levels; test: Mitochondrial toxicity in human HepG2 cells assessed as inhibition of cytochrome c oxidase subunit 2 DNA levels at 50 uM measured on day 14 by RT-PCR method relative to nuclear beta-actin DNA levels; type: cell-based
nuclear DNA levels [20] = test: Cytotoxicity against human HepG2 cells assessed as inhibition of nuclear DNA levels at 50 uM measured on day 14 by RT-PCR method relative to nuclear beta-actin DNA levels; type: cell-based; settings: read-out: INH
[21] = test system: cytochrome c oxidase subunit 2 DNA (mitochondrial DNA) levels; test: Mitochondrial toxicity in human HepG2 cells assessed as inhibition of cytochrome c oxidase subunit 2 DNA levels measured on day 14 by RT-PCR method; type: cell-based
HepG2 [22] = test: Cytotoxicity against human HepG2 cells assessed as inhibition of nuclear DNA levels measured on day 14 by RT-PCR method; settings: HepG2, 336 h
HepG2 [23] = test: Mitochondrial toxicity in human HepG2 cells assessed as cytochrome c oxidase subunit 2 DNA levels at 10 uM measured on day 14 by RT-PCR method relative to nuclear beta-actin DNA levels; settings: hepg2, 10 µM
HepG2 [24] = test: Mitochondrial toxicity in human HepG2 cells assessed as cytochrome c oxidase subunit 2 DNA levels at 50 uM measured on day 14 by RT-PCR method relative to nuclear beta-actin DNA levels; type: cell-based; settings: hepg2, 50 µM
Cytochrome P450 3A4 = Cytochrome P450 3A4 (Homo sapiens, UniProt P08684); test: Inhibition of human CYP3A4 using ketoconazole […]; type: ADME
Sequence of Cytochrome P450 3A4 (P08684 whole entry): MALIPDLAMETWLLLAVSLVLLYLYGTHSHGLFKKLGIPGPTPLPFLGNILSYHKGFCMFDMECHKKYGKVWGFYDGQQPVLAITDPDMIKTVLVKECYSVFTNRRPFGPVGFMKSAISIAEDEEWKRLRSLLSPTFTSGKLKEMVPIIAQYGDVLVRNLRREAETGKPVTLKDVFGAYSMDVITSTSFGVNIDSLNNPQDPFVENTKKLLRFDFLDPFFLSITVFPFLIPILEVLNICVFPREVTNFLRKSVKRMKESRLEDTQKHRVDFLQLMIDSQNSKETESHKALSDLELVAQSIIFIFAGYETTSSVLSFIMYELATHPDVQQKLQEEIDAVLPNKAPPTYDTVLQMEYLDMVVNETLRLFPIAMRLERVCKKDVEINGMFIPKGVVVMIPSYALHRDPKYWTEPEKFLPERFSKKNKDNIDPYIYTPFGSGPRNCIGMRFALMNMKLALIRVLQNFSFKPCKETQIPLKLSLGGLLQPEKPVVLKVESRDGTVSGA

Cytochrome P450 2C9 = Cytochrome P450 2C9 (Homo sapiens, UniProt P11712); test: Inhibition of human CYP2C9 using sulfaphenazole […]; type: ADME
Sequence of Cytochrome P450 2C9 (P11712 whole entry): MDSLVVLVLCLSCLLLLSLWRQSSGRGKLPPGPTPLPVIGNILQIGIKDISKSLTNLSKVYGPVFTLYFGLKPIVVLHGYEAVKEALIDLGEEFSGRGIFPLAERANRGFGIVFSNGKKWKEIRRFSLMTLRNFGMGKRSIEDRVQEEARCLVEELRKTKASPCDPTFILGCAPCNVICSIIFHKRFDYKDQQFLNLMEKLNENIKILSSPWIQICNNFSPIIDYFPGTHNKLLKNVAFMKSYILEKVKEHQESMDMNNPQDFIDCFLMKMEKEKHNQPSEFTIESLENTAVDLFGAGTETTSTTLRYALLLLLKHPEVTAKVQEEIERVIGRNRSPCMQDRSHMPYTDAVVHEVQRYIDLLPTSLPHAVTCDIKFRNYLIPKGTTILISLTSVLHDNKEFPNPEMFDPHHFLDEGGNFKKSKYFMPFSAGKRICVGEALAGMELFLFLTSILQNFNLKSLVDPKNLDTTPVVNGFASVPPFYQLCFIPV

Cytochrome P450 1A2 = target: T2, Cytochrome P450 1A2 (Homo sapiens, UniProt P05177); test: Inhibition of human CYP1A2 using alpha-naphthoflavone […]; type: ADME
T2 sequence (P05177 whole entry): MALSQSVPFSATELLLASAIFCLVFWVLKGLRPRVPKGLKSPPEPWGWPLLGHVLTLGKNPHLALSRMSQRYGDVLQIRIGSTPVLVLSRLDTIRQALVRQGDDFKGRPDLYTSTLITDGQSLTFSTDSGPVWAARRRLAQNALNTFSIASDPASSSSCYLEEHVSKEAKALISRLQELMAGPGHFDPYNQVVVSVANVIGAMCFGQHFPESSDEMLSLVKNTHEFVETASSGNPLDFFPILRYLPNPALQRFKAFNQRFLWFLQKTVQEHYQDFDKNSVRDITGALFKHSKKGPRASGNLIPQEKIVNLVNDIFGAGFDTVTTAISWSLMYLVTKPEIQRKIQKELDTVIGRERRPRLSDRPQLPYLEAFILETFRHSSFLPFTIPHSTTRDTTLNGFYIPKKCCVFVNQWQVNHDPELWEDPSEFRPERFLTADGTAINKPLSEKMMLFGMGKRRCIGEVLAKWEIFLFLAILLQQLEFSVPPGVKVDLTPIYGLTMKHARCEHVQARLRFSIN

Cytochrome P450 2D6 = Cytochrome P450 2D6 (Homo sapiens, UniProt P10635); test: Inhibition of human CYP2D6 using quinidine […]; type: ADME
Sequence of Cytochrome P450 2D6 (P10635 whole entry): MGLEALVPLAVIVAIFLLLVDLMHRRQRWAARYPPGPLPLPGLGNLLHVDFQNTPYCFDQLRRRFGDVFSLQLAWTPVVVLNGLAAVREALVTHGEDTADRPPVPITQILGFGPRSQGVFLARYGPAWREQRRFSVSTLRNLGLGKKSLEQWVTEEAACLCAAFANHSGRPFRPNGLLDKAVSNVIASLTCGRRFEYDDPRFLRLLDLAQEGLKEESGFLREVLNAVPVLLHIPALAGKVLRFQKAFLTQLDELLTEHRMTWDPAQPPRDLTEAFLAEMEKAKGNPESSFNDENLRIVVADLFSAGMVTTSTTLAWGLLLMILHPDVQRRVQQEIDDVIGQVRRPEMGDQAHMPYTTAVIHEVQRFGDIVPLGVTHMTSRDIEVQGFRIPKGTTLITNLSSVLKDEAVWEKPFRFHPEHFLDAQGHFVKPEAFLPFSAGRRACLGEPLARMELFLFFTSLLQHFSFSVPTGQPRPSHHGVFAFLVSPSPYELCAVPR

[25] = test system: cytochrome c oxidase subunit 2 DNA (mitochondrial DNA) levels; test: Mitochondrial toxicity in human HepG2 cells assessed as inhibition of cytochrome c oxidase subunit 2 DNA levels at 25 uM measured on day 14 by RT-PCR method relative to nuclear beta-actin DNA levels; type: cell-based
nuclear DNA levels [26] = test: Cytotoxicity against human HepG2 cells assessed as inhibition of nuclear DNA levels at 25 uM measured on day 14 by RT-PCR method relative to nuclear beta-actin DNA levels; type: cell-based; settings: read-out: INH
HepG2 [27] = test: Mitochondrial toxicity in human HepG2 cells assessed as cytochrome c oxidase subunit 2 DNA levels at 25 uM measured on day 14 by RT-PCR method relative to nuclear beta-actin DNA levels; type: cell-based; settings: hepg2, 25 µM
[28] = test system: cytochrome c oxidase subunit 2 DNA (mitochondrial DNA) levels; test: in vitro; settings: human, HepG2 cells
nuclear DNA levels [29] = test: in vitro; settings: human, HepG2 cells

SMILES: C[C@@]1(F)[C@H](O)[C@@H](COP(=O)(O)OP(=O)(O)OP(=O)(O)O)O[C@H]1n1ccc(=O)[nH]c1=O [GS-461203]
- IC50 [1]: > 100000 nM
- Activity [2]: 3.1%
- IC50 [3]: > 100000 nM
- IC50 (DNA polymerase beta): > 100000 nM
- IC50 [4]: > 100000 nM

SMILES: CC(C)OC(=O)[C@H](C)N[P@](=O)(OC[C@H]1O[C@@H](n2ccc(=O)[nH]c2=O)[C@](C)(F)[C@@H]1O)Oc1ccccc1 [SOFOSBUVIR]
- EC50 (Hepatitis C virus [5]): 90 to 200 nM
- EC90 (Hepatitis C virus [5]): 300 to 500 nM
- CC50 at 96 h [6]: > 10000 nM
- CC50 at 120 h [7]: > 100000 nM
- CC50 at 96 h [8]: > 100000 nM
- CC50 at 72 h [9]: > 100000 nM
- IC50 (Hepatitis C virus [10]): 60 nM
- IC50 (Hepatitis C virus [11]): 60 nM
- IC50 (Hepatitis C virus [12]): 20 nM
- IC50 (Hepatitis C virus [13]): 40 nM
- IC50 (Hepatitis C virus [14]): 90 nM
- IC50 (Hepatitis C virus [15]): 70 nM
- EC50 (Hepatitis C virus [16]): 400 nM
- EC90 (Hepatitis C virus [16]): 1000 nM
- Ratio EC50 (Hepatitis C virus [17]): 4.4
- Selectivity ratio (Hepatitis C virus [18]): 3
- inhibition at 14 days, 50 µM [19]: < 1%
- cytotoxicity at 14 days, 50 µM (nuclear DNA levels [20]): 38.8%
- IC50 at 14 days [21]: > 50000 nM
- IC50 (HepG2 [22]): > 50000 nM
- Activity (HepG2 [23]): 176%
- Activity (HepG2 [24]): 255%
- IC50 (Cytochrome P450 3A4): 8400 nM
- IC50 (Cytochrome P450 2C9): 60000 nM
- IC50 (Cytochrome P450 1A2): > 100000 nM
- IC50 (Cytochrome P450 2D6): > 100000 nM
- inhibition at 14 days, 25 µM [25]: < 1%
- cytotoxicity at 14 days, 25 µM (nuclear DNA levels [26]): 38.3%
- Activity (HepG2 [27]): 187%
- inhibition at 14 days, 10 µM [28]: < 1%
- cytotoxicity at 14 days, 10 µM (nuclear DNA levels [29]): 7.3%
